According to the supplement of paper PMC10307832:

Tests used:
Assay in all cases: relative viability (nuclei count vs DMSO), 5 days (fraction); higher = more cells survive
NCI-H1975 = system: NCI-H1975
Outline: (§1)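 The day after seeding in 1536-well plates, lung cancer cell lines were treated by pin tool with a single drug, or with a fixed anchor-drug dose together with five library-drug doses (not always all listed) in √10 steps. After 5 days, a combined fix-and-stain solution (final 0.05% Triton X-100, 1% formaldehyde, 1 ug/ml Hoechst) was added. Nuclei counted on 4× images gave relative viability as treated counts over vehicle counts, reported as the median of duplicate plates.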

LXF-289 = system: LXF-289
Outline: as §1

COR-L 105 = system: COR-L 105
Outline: as §1

NCI-H1944 = system: NCI-H1944
Outline: as §1

NCI-H596 = system: NCI-H596
Outline: as §1

LC-2-ad = system: LC-2-ad
Outline: as §1

LU99A = system: LU99A
Outline: as §1

NCI-H1734 = system: NCI-H1734
Outline: as §1

NCI-H1650 = system: NCI-H1650
Outline: as §1

HARA = system: HARA
Outline: as §1

EKVX = system: EKVX
Outline: as §1

BEN = system: BEN
Outline: as §1

`O=C(O)CCCCC(CCSCc1ccccc1)SCc1ccccc1` (configuration not stated) [CPI-613] + CC(=O)Nc1cccc(-n2c(=O)n(C3CC3)c(=O)c3c(Nc4ccc(I)cc4F)n(C)c(=O)c(C)c32)c1 [Trametinib] (partner 0.02 µM) showed a relative viability (NCI-H1975; first compound 50 µM) of 0.272, a relative viability (NCI-H1975; first compound 158.11 µM) of 0.348 and a relative viability (NCI-H1975; first compound 500 µM) of 0.0712. It also gave a relative viability (LXF-289; first compound 5 µM) of 0.653, a relative viability (LXF-289; first compound 15.81 µM) of 0.659 and a relative viability (LXF-289; first compound 50 µM) of 0.665. It also gave a relative viability (LXF-289; first compound 158.11 µM) of 0.446, a relative viability (LXF-289; first compound 500 µM) of 0.572 and a relative viability (COR-L 105; first compound 5 µM) of 0.459. The relative viability (COR-L 105; first compound 15.81 µM) was 0.437, the relative viability (COR-L 105; first compound 50 µM) was 0.479 and the relative viability (COR-L 105; first compound 158.11 µM) was 0.355. The relative viability (COR-L 105; first compound 500 µM) was 0.225, the relative viability (NCI-H1944; first compound 5 µM) was 0.427 and the relative viability (NCI-H1944; first compound 15.81 µM) was 0.398. It also gave a relative viability (NCI-H1944; first compound 50 µM) of 0.412, a relative viability (NCI-H1944; first compound 158.11 µM) of 0.259 and a relative viability (NCI-H1944; first compound 500 µM) of 0.28. It also gave a relative viability (NCI-H596; first compound 5 µM) of 0.823, a relative viability (NCI-H596; first compound 15.81 µM) of 0.732 and a relative viability (NCI-H596; first compound 50 µM) of 0.765. For the same molecule, the relative viability (NCI-H596; first compound 158.11 µM) was 0.34, the relative viability (NCI-H596; first compound 500 µM) was 0.036 and the relative viability (LC-2-ad; first compound 5 µM) was 0.857. The relative viability (LC-2-ad; first compound 15.81 µM) was 0.899, the relative viability (LC-2-ad; first compound 50 µM) was 0.911 and the relative viability (LC-2-ad; first compound 158.11 µM) was 0.695. For the same molecule, the relative viability (LC-2-ad; first compound 500 µM) was 0.0212, the relative viability (LU99A; first compound 5 µM) was 0.51 and the relative viability (LU99A; first compound 15.81 µM) was 0.524. For the same molecule, the relative viability (LU99A; first compound 50 µM) was 0.461, the relative viability (LU99A; first compound 158.11 µM) was 0.338 and the relative viability (LU99A; first compound 500 µM) was 0.357. It also gave a relative viability (NCI-H1734; first compound 5 µM) of 0.615, a relative viability (NCI-H1734; first compound 15.81 µM) of 0.631 and a relative viability (NCI-H1734; first compound 50 µM) of 0.593. It also gave a relative viability (NCI-H1734; first compound 158.11 µM) of 0.482, a relative viability (NCI-H1734; first compound 500 µM) of 0.101 and a relative viability (NCI-H1650; first compound 5 µM) of 0.546. For the same molecule, the relative viability (NCI-H1650; first compound 15.81 µM) was 0.548, the relative viability (NCI-H1650; first compound 50 µM) was 0.537 and the relative viability (NCI-H1650; first compound 158.11 µM) was 0.168. For the same molecule, the relative viability (NCI-H1650; first compound 500 µM) was 0.0145, the relative viability (HARA; first compound 5 µM) was 0.805 and the relative viability (HARA; first compound 15.81 µM) was 0.57. The relative viability (HARA; first compound 50 µM) was 0.849, the relative viability (HARA; first compound 158.11 µM) was 0.362 and the relative viability (HARA; first compound 500 µM) was 0.0485. The relative viability (EKVX; first compound 5 µM) was 0.287, the relative viability (EKVX; first compound 15.81 µM) was 0.272 and the relative viability (EKVX; first compound 50 µM) was 0.343. For the same molecule, the relative viability (EKVX; first compound 500 µM) was 0.325, the relative viability (BEN; first compound 5 µM) was 1.14 and the relative viability (BEN; first compound 15.81 µM) was 0.976. For the same molecule, the relative viability (BEN; first compound 50 µM) was 0.958, the relative viability (BEN; first compound 158.11 µM) was 0.804 and the relative viability (BEN; first compound 500 µM) was 0.905.
